This is an account of results in patent US20260200944A1, “NOVEL IRAK4 INHIBITOR AND COMPOUND FOR INHIBITING AND DEGRADING IRAK4 PROTEIN, AND PREPARATION METHOD THEREFOR AND USE THEREOF” (DOVETREE MEDICINES UNUS, INC., priority 2022, published 2026).

This assay has as its target T1, IRAK4 kinase protein (Homo sapiens, UniProt Q9NWZ3).
T1 sequence (Q9NWZ3 1-460): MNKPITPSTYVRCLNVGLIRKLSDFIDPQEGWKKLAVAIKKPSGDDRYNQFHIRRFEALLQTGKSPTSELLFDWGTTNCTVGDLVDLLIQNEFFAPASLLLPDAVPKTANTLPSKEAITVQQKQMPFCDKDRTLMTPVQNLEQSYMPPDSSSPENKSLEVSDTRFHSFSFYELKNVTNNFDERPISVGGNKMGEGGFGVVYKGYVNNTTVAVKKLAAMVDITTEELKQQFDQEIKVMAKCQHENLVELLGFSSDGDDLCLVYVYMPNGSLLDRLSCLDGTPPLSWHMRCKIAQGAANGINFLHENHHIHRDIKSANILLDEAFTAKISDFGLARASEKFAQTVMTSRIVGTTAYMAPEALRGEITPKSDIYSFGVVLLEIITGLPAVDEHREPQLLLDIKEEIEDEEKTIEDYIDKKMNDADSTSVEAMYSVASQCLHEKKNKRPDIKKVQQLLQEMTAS
Briefly: IRAK4 kinase inhibition assay (Cisbio HTRF KinEASE-STK S1 kit). The class given is biochemical. To be noted: IRAK4 10 nM, ATP 200 μM, substrate 1 μM, 37° C. for 2 h, read-out: IRAK4 inhibitory activity IC50. The procedure: In this assay, the Cisbio HTRF KinEASE-STK SI kit (62S1PEB) was used. The assay/detection buffer, STK Substrate 1-biotin, Streptavidin-XL665, and STKAntibody-Crypatete were all contained in the kit.
After the compound/DMSO was added to a 384-well plate (PerkinElmer 6008280) using Echo 665, 5 μL of 2-fold reaction concentration of IRAK4 kinase protein (final concentration: 10 nM) dissolved with an assay buffer [1 volume of 5× kinase buffer+20 mM magnesium chloride (Sigma) solution+1 mM DTT (Alfa Aesar) solution+4 volumes of deionized water] was added. The shallow well plate was sealed, shaken, centrifuged at 1000 rpm for 1 min, and then incubated at room temperature for 5 min. Then, 5 μL of 2-fold reaction concentration of a 1:1 mixture of STK Substrate 1-biotin (final concentration: 1 μM) and ATP (Sigma A1852) (final concentration: 200 μM) formulated with the assay buffer was added. The shallow well plate was sealed, shaken, centrifuged at 1000 rpm for 1 min, and then incubated at 37° C. for 2 h, followed by the addition of 10 μL of a 1:1 mixture of Streptavidin-XL665 (final concentration: 62.5 nM) and STK-antibody-cryptate dissolved with a detection buffer. The shallow well plate was sealed, shaken, centrifuged at 1000 rpm for 1 min, and then incubated at room temperature for 1 h, and then the value at the wavelength of 620 nm/665 nm was read using a microplate reader. The data were analyzed using Prism 9.3 software, and the IC50 value of IRAK4 kinase inhibition was fitted using a four parameter Logistic equation.

The structures appear in SMILES notation.

As to `FC(F)c1nn(C2CCCCC2)c2cnc(-n3ccc4ccc(N5CCOCC5)nc43)cc12` [Compound C1], the IC50 lay in the range of 5 to 10 µM.
Turning to `N#Cc1cnc2c(-c3cc4c(C(F)F)nn(C5CCCCC5)c4cn3)cnn2c1` [Compound C3i], the IC50 was in the range of 1 to 5 µM.
As for `NC(=O)c1cnn2c(-c3cc4c(C(F)F)nn(C5CCCCC5)c4cn3)ccc2c1` [Compound C4ii], the IC50 was below 1 µM.
Turning to `N#Cc1cnc2c(ccn2-c2cc3c(C(F)F)nn(C4CCCCC4)c3cn2)c1` [Compound C5i], the half-inhibitory concentration (IC50) is above 10 µM.
Regarding `NC(=O)c1cnc2c(ccn2-c2cc3c(C(F)F)nn(C4CCCCC4)c3cn2)c1` [Compound C5ii], the IC50 was in the range of 1 to 5 µM.
